From patent US11236112B2 (GENFLEET THERAPEUTICS (SHANGHAI) INC., priority 2017, dated 2022)

Key:
[1] = Solubility of different salt types in biological vehicle (SGF, FeSSIF, FaSSIF), HPLC; assay type: physicochemical; conditions: 37° C.; for pH value: supernatant
Protocol: 1 ml of biological vehicle solution (FaSSIF, FeSSIF and SGF) was pipetted respectively into a 1.5-ml glass bottle, and then added to the above-mentioned solution at a gradient of 2 mg until 10 mg or the mixture was saturated. The mixture was prepared in 2 parts in parallel, and then shaken at 37° C. Samples were taken after 4 hours and 24 hours, respectively. The samples taken were centrifuged quickly, and the supernatant was measured for pH value and diluted with a diluent to a suitable multiple, and then the concentration was determined by HPLC.

TGF-βRI = molecular target: T1, TGF-βRI (Homo sapiens, UniProt P36897); assay: TGFβ-RI receptor binding activity screening in vitro (enzyme activity, IC50)
T1 sequence (P36897 34-503): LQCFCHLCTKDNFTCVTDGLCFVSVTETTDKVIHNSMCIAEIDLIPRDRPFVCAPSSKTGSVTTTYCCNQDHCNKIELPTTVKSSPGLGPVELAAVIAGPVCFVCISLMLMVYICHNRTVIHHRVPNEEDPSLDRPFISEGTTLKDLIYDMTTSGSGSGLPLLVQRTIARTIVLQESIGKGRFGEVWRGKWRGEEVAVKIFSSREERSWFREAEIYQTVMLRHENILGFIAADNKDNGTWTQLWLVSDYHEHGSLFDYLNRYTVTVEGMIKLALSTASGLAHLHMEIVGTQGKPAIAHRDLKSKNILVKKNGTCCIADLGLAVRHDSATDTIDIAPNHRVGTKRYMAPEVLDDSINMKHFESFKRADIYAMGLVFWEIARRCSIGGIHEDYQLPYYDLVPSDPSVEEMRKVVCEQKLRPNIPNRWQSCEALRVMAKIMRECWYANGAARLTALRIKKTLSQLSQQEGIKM

[2] = Approximate solubility in pure water; assay type: physicochemical; conditions: thermodynamic from solid, room temperature, 2 mg sample, read-out: Approximate solubility S
Protocol: 2 mg of the sample of each compound was weighed and added to a 1.5-ml glass vial, and a certain volume of pure water was added with a pipette, and ultrasonic solubilization was performed appropriately. The study was conducted at room temperature and tested for solubilization.

[3] = Hygroscopicity by dynamic vapor sorption (DVS); assay type: physicochemical; conditions: 25° C./80% RH
Protocol: In the present invention, the dynamic vapor sorption (DVS) is determined by using the following method: instrument model: SMS DVS Advantage dynamic vapor sorption instrument
Test condition: place 10-15 mg of sample in a DVS sample disk for testing.
The detailed DVS parameters are as follows: […]
balance: dm/dt=0.01%/min (minimum: 10 min; maximum: 180 min) drying: dry for 120 min at 0% RH
RH (%) test step range: 0%-90%-0%
The classification of hygroscopicity evaluation is as follows:
1. Experimental material: SMS DVS Advantage dynamic vapor sorption instrument
2. Experimental method: an appropriate amount of the crystal form B of the compound of formula (II) was placed in a DVS sample disk for DVS analysis.

liver cancer patients = conditions: phase 2 clinical trial, after treatment; cited from earlier work
[4] = High-temperature stability test (60° C., open container); assay type: physicochemical
[5] = High-humidity stability test (40° C./75% humidity, open); assay type: physicochemical

In the case of `Cc1cccc(-c2nn3c(c2-c2ccc4ncnn4c2/C=C/C(N)=O)CCC3)n1` [Compound of formula (I)], the Concentration ([1]; FaSSIF, 4 hours) is reported as 352 µg/mL, the State ([1]; FaSSIF, 4 hours) is reported as “turbid” and the pH value ([1]; FaSSIF, 4 hours) is reported as 6.45. The Concentration ([1]; FaSSIF, 24 hours) was 421 µg/mL, the State ([1]; FaSSIF, 24 hours) was “turbid” and the pH value ([1]; FaSSIF, 24 hours) was 6.42. The Concentration ([1]; FeSSIF, 4 hours) was 565 µg/mL, the State ([1]; FeSSIF, 4 hours) was “turbid” and the pH value ([1]; FeSSIF, 4 hours) was 4.97. The Concentration ([1]; FeSSIF, 24 hours) was 637 µg/mL, the State ([1]; FeSSIF, 24 hours) was “turbid” and the pH value ([1]; FeSSIF, 24 hours) was 4.95. For the same compound, the Concentration ([1]; SGF, 4 hours) was 1997 µg/mL, the State ([1]; SGF, 4 hours) was “soluble” and the pH value ([1]; SGF, 4 hours) was 2.37. For the same compound, the Concentration ([1]; SGF, 24 hours) was 1994 µg/mL, the State ([1]; SGF, 24 hours) was “soluble” and the pH value ([1]; SGF, 24 hours) was 2.43. It also gave an IC50 (TGF-βRI) of 40 nM and a solubility [2] of less than 1.9 mg/mL.

With `Cc1ccc(S(=O)(=O)O)cc1.Cc1cccc(-c2nn3c(c2-c2ccc4ncnn4c2/C=C/C(N)=O)CCC3)n1` [Compound of formula (II)] the Concentration ([1]; FaSSIF, 4 hours) was 10150 µg/mL, the State ([1]; FaSSIF, 4 hours) was “clear” and the pH value ([1]; FaSSIF, 4 hours) was 3.15. For the same compound, the Concentration ([1]; FaSSIF, 24 hours) was 10720 µg/mL, the State ([1]; FaSSIF, 24 hours) was “clear” and the pH value ([1]; FaSSIF, 24 hours) was 3.13. The Concentration ([1]; FeSSIF, 4 hours) was 10840 µg/mL, the State ([1]; FeSSIF, 4 hours) was “clear” and the pH value ([1]; FeSSIF, 4 hours) was 1.89. The Concentration ([1]; FeSSIF, 24 hours) was 10580 µg/mL, the State ([1]; FeSSIF, 24 hours) was “clear” and the pH value ([1]; FeSSIF, 24 hours) was 1.87. The Concentration ([1]; SGF, 4 hours) was 1610 µg/mL, the State ([1]; SGF, 4 hours) was “Suspension” and the pH value ([1]; SGF, 4 hours) was 3.45. For the same compound, the Concentration ([1]; SGF, 24 hours) was 1470 µg/mL, the State ([1]; SGF, 24 hours) was “Suspension” and the pH value ([1]; SGF, 24 hours) was 4.26. The solubility [2] was 49 to 98 mg/mL.

For `Cc1ccc(S(=O)(=O)O)cc1.Cc1cccc(-c2nn3c(c2-c2ccc4ncnn4c2/C=C/C(N)=O)CCC3)n1`, the Classification of hygroscopicity [3] was “slightly hygroscopic” and the “Hygroscopic weight gain ΔW” value [3] was 0.673%.

In the case of `Cc1cccc(-c2nn3c(c2-c2ccc4ncnn4c2/C=C/C(N)=O)CCC3)n1.Cl` [Hydrochloride], the Concentration ([1]; FaSSIF, 4 hours) is reported as 4378 µg/mL, the State ([1]; FaSSIF, 4 hours) is reported as “soluble” and the pH value ([1]; FaSSIF, 4 hours) is reported as 3.96. For the same compound, the Concentration ([1]; FaSSIF, 24 hours) was 4195 µg/mL, the State ([1]; FaSSIF, 24 hours) was “soluble” and the pH value ([1]; FaSSIF, 24 hours) was 3.97. The Concentration ([1]; FeSSIF, 4 hours) was 1028 µg/mL, the State ([1]; FeSSIF, 4 hours) was “turbid” and the pH value ([1]; FeSSIF, 4 hours) was 4.52. The Concentration ([1]; FeSSIF, 24 hours) was 1065 µg/mL, the State ([1]; FeSSIF, 24 hours) was “turbid” and the pH value ([1]; FeSSIF, 24 hours) was 4.52. For the same compound, the Concentration ([1]; SGF, 4 hours) was 4343 µg/mL, the State ([1]; SGF, 4 hours) was “soluble” and the pH value ([1]; SGF, 4 hours) was 2.04. The Concentration ([1]; SGF, 24 hours) was 4427 µg/mL, the State ([1]; SGF, 24 hours) was “soluble” and the pH value ([1]; SGF, 24 hours) was 2.05.

In the case of `CS(=O)(=O)O.Cc1cccc(-c2nn3c(c2-c2ccc4ncnn4c2/C=C/C(N)=O)CCC3)n1`, the Concentration ([1]; FaSSIF, 4 hours) is reported as 5159 µg/mL, the State ([1]; FaSSIF, 4 hours) is reported as “soluble” and the pH value ([1]; FaSSIF, 4 hours) is reported as 4.16. For the same compound, the Concentration ([1]; FaSSIF, 24 hours) was 3704 µg/mL, the State ([1]; FaSSIF, 24 hours) was “turbid” and the pH value ([1]; FaSSIF, 24 hours) was 3.71. For the same compound, the Concentration ([1]; FeSSIF, 4 hours) was 852 µg/mL, the State ([1]; FeSSIF, 4 hours) was “turbid” and the pH value ([1]; FeSSIF, 4 hours) was 4.58. The Concentration ([1]; FeSSIF, 24 hours) was 925 µg/mL, the State ([1]; FeSSIF, 24 hours) was “turbid” and the pH value ([1]; FeSSIF, 24 hours) was 4.60. For the same compound, the Concentration ([1]; SGF, 4 hours) was 5103 µg/mL, the State ([1]; SGF, 4 hours) was “soluble” and the pH value ([1]; SGF, 4 hours) was 2.08. The Concentration ([1]; SGF, 24 hours) was 5163 µg/mL, the State ([1]; SGF, 24 hours) was “soluble” and the pH value ([1]; SGF, 24 hours) was 2.14.

For `Cc1cccc(-c2nn3c(c2-c2ccnc4ccc(C(N)=O)cc24)CCC3)n1` [LY2157299, Galunisertib], the “Patients with a decrease in serum alpha-fetoprotein (AFP) levels by at least 20%” value (liver cancer patients) is given as “approximately 23%”.

With `Cc1cccc(-c2nn3c(c2-c2ccc4ncnn4c2/C=C/C(N)=O)CCC3)n1` the Content ([4]; day 0) was 99.0%, the “Study on crystal form” value ([4]; day 0) was “Crystal form A” and the Total impurities ([4]; day 0) was 0.57%. For the same compound, the Content ([4]; day 30) was 97.5%, the “Study on crystal form” value ([4]; day 30) was “Crystal form A” and the Total impurities ([4]; day 30) was 0.56%. The Content ([4]; day 60) was 100.0%, the “Study on crystal form” value ([4]; day 60) was “Crystal form A” and the Total impurities ([4]; day 60) was 0.58%. The Content ([4]; day 90) was 99.9%, the “Study on crystal form” value ([4]; day 90) was “Crystal form A” and the Total impurities ([4]; day 90) was 0.55%. For the same compound, the “Stability under high temperature conditions (conclusion)” value ([4]; up to 90 days) was “Conclusion: The high-temperature stability test shows that crystal form A of the compound of formula (I) has good stability under high temperature conditions”, the Content ([5]; day 0) was 99.0% and the Total impurities ([5]; day 0) was 0.57%. For the same compound, the Content ([5]; day 30) was 100.6%, the Total impurities ([5]; day 30) was 0.57% and the Content ([5]; day 60) was 101.1%. The Total impurities ([5]; day 60) was 0.58%, the Content ([5]; day 90) was 100.4% and the Total impurities ([5]; day 90) was 0.58%. The “Stability under high humidity conditions (conclusion)” value ([5]; up to 90 days) was “Conclusion: The high-humidity stability test shows that the crystal form A of the compound of formula (I) has good stability under high humidity conditions”.

For `Cc1cccc(-c2nn3c(c2-c2ccc4ncnn4c2/C=C/C(N)=O)CCC3)n1` [Sulphate], the Concentration ([1]; FaSSIF, 4 hours) was 4998 µg/mL, the State ([1]; FaSSIF, 4 hours) was “soluble” and the pH value ([1]; FaSSIF, 4 hours) was 2.44. The Concentration ([1]; FaSSIF, 24 hours) was 5000 µg/mL, the State ([1]; FaSSIF, 24 hours) was “soluble” and the pH value ([1]; FaSSIF, 24 hours) was 2.50. The Concentration ([1]; FeSSIF, 4 hours) was 1530 µg/mL, the State ([1]; FeSSIF, 4 hours) was “turbid” and the pH value ([1]; FeSSIF, 4 hours) was 4.22. For the same compound, the Concentration ([1]; FeSSIF, 24 hours) was 1504 µg/mL, the State ([1]; FeSSIF, 24 hours) was “turbid” and the pH value ([1]; FeSSIF, 24 hours) was 4.21. For the same compound, the Concentration ([1]; SGF, 4 hours) was 4885 µg/mL, the State ([1]; SGF, 4 hours) was “soluble” and the pH value ([1]; SGF, 4 hours) was 1.77. For the same compound, the Concentration ([1]; SGF, 24 hours) was 4952 µg/mL, the State ([1]; SGF, 24 hours) was “soluble” and the pH value ([1]; SGF, 24 hours) was 1.84.
